Data from paper PMC6526634, “Preparation of bioactive peptides with antidiabetic, antihypertensive, and antioxidant activities and identification of α‐glucosidase inhibitory peptides from soy protein” (Food Science & Nutrition, 2019).
Where a SMILES comes first, the peptide text is derived from it.

Columns and labels:
[1] = target: T1, α‐glucosidase from Saccharomyces cerevisiae (Saccharomyces cerevisiae, UniProt P53341); assay: α‐glucosidase inhibitory activity assay; format: biochemical
T1 construct: purchased Sigma-Aldrich
T1 sequence (P53341 whole entry): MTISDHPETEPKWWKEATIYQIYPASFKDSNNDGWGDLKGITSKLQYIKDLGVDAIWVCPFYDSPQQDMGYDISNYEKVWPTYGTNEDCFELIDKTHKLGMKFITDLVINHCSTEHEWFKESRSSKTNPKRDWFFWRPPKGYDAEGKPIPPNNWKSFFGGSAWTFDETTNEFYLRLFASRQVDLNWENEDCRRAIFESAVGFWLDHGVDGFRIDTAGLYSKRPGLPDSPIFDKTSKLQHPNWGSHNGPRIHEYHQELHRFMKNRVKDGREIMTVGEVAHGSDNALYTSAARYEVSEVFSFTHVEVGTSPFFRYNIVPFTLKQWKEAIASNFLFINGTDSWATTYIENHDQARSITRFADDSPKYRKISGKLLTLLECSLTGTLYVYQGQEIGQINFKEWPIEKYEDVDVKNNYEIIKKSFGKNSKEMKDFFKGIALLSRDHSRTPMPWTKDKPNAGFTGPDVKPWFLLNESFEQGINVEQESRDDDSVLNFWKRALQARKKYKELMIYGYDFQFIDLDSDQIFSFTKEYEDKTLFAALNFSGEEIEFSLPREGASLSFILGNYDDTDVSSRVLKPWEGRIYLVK
Protocol: All other chemicals and reagents were of analytical grade and commercially available.
α‐glucosidase inhibitory activity assay was performed according to a method by Kim with slight modifications (Kim, Wang, & Rhee, 2004). The α‐glucosidase inhibitory rate of the hydrolysate was estimated in a 96‐well microplate using a MR‐96A microplate reader (Mindray) by monitoring the amount of 4‐nitrophenol (PNP) released from 4‐nitrophenol‐α‐D‐glucopyranoside (PNPG). A dose (50 μl) of sodium phosphate buffer (pH 6.8, 0.2 M), 50 μL of PNPG (1 mg/ml) dissolved in sodium phosphate buffer, and 50 μl of the samples dissolved in the same buffer were mixed adequately in a 96‐well microplate. Then, it was incubated for 5 min at 37°C, and the reaction started immediately followed by the addition of 10 μl of α‐glucosidase solution (0.2 U/ml of the buffer). The plate was incubated for another 30 min at 37°C, and then, the reaction was terminated by the addition of 80 μl of 1 M Na2CO3 solution. The absorbance of released product PNP was measured immediately at 405 nm. […] The percentage of α‐glucosidase inhibition was calculated as follows:(1) α-glucosidase inhibition rate%=ODA-ODS/ODA-ODB×100 where ODA is the absorbance of the supernatant in which the sample is replaced by the same amount of buffer; ODS is the absorbance of the supernatant with the tested sample; and ODBis the absorbance of the supernatant in which the tested sample and α‐glucosidase solution are replaced by the same amount of buffer.

[2] = Hydroxyl radical scavenging ability; conditions: Fenton reaction, salicylic acid, 37℃, 30 min, absorbance 510 nm; mean ± SD of three replicates
Protocol: The antioxidant activity of the soy protein peptides was determined by a hydroxyl radical scavenging assay involving in the Fenton reaction, according to Hanasaki (Hanasaki, Ogava, & Fukui, 1994). The samples were prepared into 0.1, 0.5, 2, 5, and 10 mg/ml. Then, 1 ml of 9 µmol/L FeSO4 solution and 1 ml of salicylic acid–ethanol solution (9 µmol/L，50% ethanol solution) were added respectively and mixed well, with the addition of 1 ml of […] H2O2 (0.03%) reaction initiated. The mixture was incubated in a 37℃ water bath for 30 min and then centrifuged at 2,896 g for 5 min to remove the precipitation. The absorbance of the supernatant was measured at 510 nm. The hydroxyl radical clearance rate was calculated as follows:(4) Hydroxyl radical clearance rate%=1-A1-A2/A0×100 where A 1 is the absorbance of the sample supernatant, A 2 is the absorbance of the supernatant in which the salicylic acid–ethanol is replaced by the same amount of ethanol, and A 0 is the absorbance of the supernatant in which the sample is replaced by distilled water. The ascorbic acid was used as a positive control.

[3] = Ferric reducing antioxidant power (FRAP) activity; conditions: 1, 2, 5, 10, and 20 mg/ml, potassium ferricyanide, pH 6.6, 50℃, 30 min, absorbance 700 nm
Protocol: The FRAP assay was used to determine the antioxidative of the samples using the method described by Tsai et al with some modifications (Tsai, Huang, & Mau, 2006) and to configure the sample solution with the concentration of 1, 2, 5, 10, and 20 mg/ml. Using 1 ml of sample mixed with 2.5 ml of 0.2 mol/L sodium phosphate buffer (pH 6.6) and 2.5 ml of 1% potassium ferricyanide solution incubated at 50℃ for 30 min, add 2.5 ml of 10% trichloroacetic acid solution, centrifuged at 1,042 g for 10 min, and then collected 2.5 ml of supernatant mixed with 2.5 ml of distilled water and 0.5 ml of 0.1% ferric chloride solution. The absorbance at 700 nm was measured after 10 min by a 754 PC spectrophotometer (Shanghai, China). FeSO4 aqueous solution was used as positive control.

Compound: CC(C)C[C@H](NC(=O)[C@@H](NC(=O)[C@@H]1CCCN1C(=O)[C@H](CC(C)C)NC(=O)[C@@H]1CCCN1C(=O)[C@H](CC(C)C)NC(=O)[C@@H](N)CC(C)C)C(C)C)C(=O)N[C@@H](CCCCN)C(=O)O (H-LLPLPVLK-OH)
- IC50 [1]: 237.4 ± 0.52 µM

Compound: CC(C)C[C@H](NC(=O)[C@H](CCCNC(=N)N)NC(=O)[C@H](CC(C)C)NC(=O)[C@H](Cc1c[nH]c2ccccc12)NC(=O)[C@@H](N)CO)C(=O)O [SWLRL] (H-SWLRL-OH)
- IC50 [1]: 182.1 ± 0.74 µM

Compound: CC(C)C[C@H](NC(=O)[C@H](CCCNC(=N)N)NC(=O)[C@H](CC(C)C)NC(=O)[C@@H](N)Cc1c[nH]c2ccccc12)C(=O)O [WLRL] (H-WLRL-OH)
- IC50 [1]: 165.3 ± 0.74 µM

Compound: O=C1O[C@H]([C@@H](O)CO)C(O)=C1O [vitamin C, ascorbic acid]
- hydroxyl radical scavenging ability IC50 [2]: 540 ± 40 µg/mL

Compound: MLPVMR [hexapeptide identified from soy protein AP hydrolysate fraction H1‐2, then synthesized]
- α‐glucosidase inhibition, result in words ([1]; synthetic peptide or DEAE‐52 fraction, test concentration not given): did not show inhibitory activity

Compound: ferrous sulfate [FeSO4]
- iron ion reduction ability (FRAP) [3]: linearly related to concentration
- iron ion reduction ability (FRAP) ([3]; listed as ferrous sulfate): stronger reduction ability
